Consider twelve substances from article PMC7515829, “HKDC1 C-terminal based peptides inhibit extranodal natural killer/T-cell lymphoma by modulation of mitochondrial function and EBV suppression” (Leukemia, 2020).

Ends that are not written are not given here. Some results are limits rather than exact numbers.

In one test the test system is MNCs from ENKTL patients. The note with it: read-out: IC50 (µM) ENKTL, half-maximal cell death activity, peptides 0.1–15 µM, 6 h, PI staining, FACS, mean ± SEM, n in cell. An excerpt: (§1) We investigated the potential role of HKDC1-based peptides in ENKTL cells that were isolated from the MNCs of ENKTL patients or SNK6 cell line. Three different kinds of HKDC1-based targeting peptides, including the last 15 aa at either the N-terminal (HKN15) or C-terminal (HKC15), or the last eight aa at the C-terminal (HKC8) were selected; four different kinds of cell-penetrating sequences were employed to deliver the HKDC1-based peptides, including Antp (a 16 penetrating residue long sequence from the Drosophila antennapedia-homeodomain), penetration-accelerating segment, TAT (HIV-1 TAT sequence), and Tf (the Tf receptor (TfR) internalization sequence) sequences. All of the aa with the D-configuration (marked as D) were synthesized as retro-inverso peptides. […] We then evaluated the toxic effect of two peptides (including Tf-D-HKC15 and Tf-D-HKC8) on different kinds of primary and cancer cell lines (see details in Table 2). […] We also evaluated the peptide delivery efficiency using ^125I-labeled uptake assay for both Tf-D-HKC8 and Tf-D-HKC15 peptides.
(§2) Measurement of apoptosis and cell death. Apoptosis was evaluated by TUNEL assay using the In Situ Cell Death Detection Kit™ (Roche). Cells were fixed in 4% paraformaldehyde and labeled with TUNEL reagents. Stained cells were photographed by a fluorescence microscope (11). For cell death analysis, the propidium iodide (PI) staining was performed by addition of 6.25 µg/ml of PI to the cells, and cell death was immediately evaluated by FACS analysis (3).

Test [1] relates to SNK6 cells. The note with it: read-out: IC50 (µM) SNK6, half-maximal cell death activity; SNK6 cells; peptides 0.1–15 µM, 6 h; PI staining, FACS; mean ± SEM, n in cell (Table 1).
Description: as §1, §2

Test [2] concerns SNK6 xenograft. Description: Mouse survival, Kaplan–Meier analysis. Format: in vivo. The note with it: nude mice, intratumoral 50 µM peptide every 2 days from day ~18, compared with CTL group, n = 9. The procedure:
Statistical analysis. The data was given as mean ± SEM; all of the experiments were performed at least in quadruplicate unless otherwise indicated. One-way ANOVA followed by the Bonferroni post hoc test was used to determine statistical significance of different groups. The mouse survival curve was determined through Kaplan-Meier survival analysis using SPSS 22 software, and a P value < 0.05 was considered significant (8).

Test [3] deals with SNK6 cells. Description: Cell proliferation by thymidine incorporation. Type of test: cell-based, human. The note with it: 0.5 µM peptide, 6 h, vs CTL, n = 5 (Fig. 5a). The procedure: DNA synthesis by [^3H]-thymidine incorporation. Cell proliferation was evaluated as the rate of DNA synthesis by [^3H]-methylthymidine incorporation (17). […] At the end of the treatment, cells were incubated with serum-free media containing ^3H-methylthymidine (0.5 µCi/well) for 2 hours and then washed twice with PBS. Cellular DNA was precipitated using 10% trichloroacetic acid and solubilized with 0.4M NaOH (0.5 ml/well). Incorporation of ^3H-methylthymidine into the DNA was measured in a scintillation counter and was determined as counts per minute (CPM) (8).

The test system of test [4] is SNK6 cells. Description: 8-OHdG formation (DNA damage ELISA). Type of test: cell-based, human. The note with it: 0.5 µM peptide, 6 h, vs CTL, n = 5 (Fig. 3c). The procedure: (§3) Measurement of DNA breaks. 8-OHdG formation was measured using an OxiSelect™ Oxidative DNA Damage ELISA Kit (Cat No. STA320, from Cell Biolabs Inc.) per manufacturers’ instructions. The formation of γH2AX was measured from nuclear extracts by western blotting using H2AX as the input control (8).

A further test concerns EBV. Description: EBV viral genomes/cell by qPCR in SNK6 cells. Format: cell-based. The note with it: 0.5 µM peptide, 6 h, vs CTL, n = 4 (Fig. 3i). The procedure: Detection of EBV copy number. Genomic DNA was extracted from treated SNK-6 cells or SNK-6 tumor tissue in mice using a QIAamp DNA Mini Kit (Qiagen). The EBV DNA copy number was measured through qPCR using 50ng of total DNA with EBV BMRF1 primers (see Table 1), and the results were normalized using cellular β-actin (primers see Table 1) as an internal control (13, 14). The Namalwa cell line, which contains 2 EBV viral genome copies, was used as a standard to prepare calibration curves for both EBV BMRF1 and β-actin genes, and the EBV viral load was presented as the number of viral genomes per cell (15, 16).

The test system of test [5] is SNK6 cells. Particulars: 0.5 µM peptide, 6 h, vs CTL, n = 3 (Fig. 5g). The procedure: Immunostaining. […] The cells were then washed three times and the FITC labeled anti-mouse secondary antibody (1:100) was added for blotting for another 1 hour. After thorough washing, the slides were visualized and photographed, the nuclei of cells were stained with 4’,6-diamidino-2-phenylindole dihydrochloride (DAPI, #D9542, from Sigma), and the positive Ki-67 cells were quantitated.

For test [6], the system named is SNK6 cells. The test is described as follows: ROS formation (CM-H2DCFDA). Type of test: cell-based, human. Particulars: 0.5 µM peptide, 6 h, compared with CTL group, n = 5 (Fig. 3a). The procedure: Measurement of ROS generation. Treated cells were seeded in a 24-well plate and incubated with 10μM CM-H2DCFDA (Invitrogen) for 45 min at 37°C, and then the intracellular formation of reactive oxygen species (ROS) was measured at excitation/emission wavelengths of 485/530nm using a FLx800 microplate fluorescence reader (Bio-Tek). The data was normalized as arbitrary units (8, 11).

The test system of test [7] is SNK6 cells. The test is described as follows: γH2AX formation (western blot). Type of test: cell-based, human. The note with it: 0.5 µM peptide, 6 h, vs CTL, n = 5 (Fig. 3d). The procedure: as §3
The target of another test is HKDC1/VDAC1 (Homo sapiens, UniProt P21796). The test is described as follows: IP/WB association of HKDC1 with VDAC1 in SNK6 cells. Type of test: cell-based. The arrangement: endogenous in cells; host or cells: SNK6. The note with it: 0.5 µM peptide, 6 h, vs CTL, n = 5 (Fig. 4c, d). The procedure:
Immunoprecipitation (IP) and Western Blotting (WB). Cell lysates were pre-cleared by pre-immune IgG plus Protein A agarose beads for 2 hours, and the supernatants were immunoprecipitated by the indicated antibodies and a 50% slurry of Protein A Agarose beads overnight at 4 °C (9). After washing with buffer containing 50 mM Tris, pH 7.5, 150 mM NaCl, 1% NP-40, and 0.5% deoxycholate with protease inhibitors, proteins were released, separated on 10% SDS-PAGE gels, blotted by primary antibodies, and then simultaneously incubated with the differentially labeled species-specific secondary antibodies, anti-RABBIT IRDye™ 800CW (green) and anti-MOUSE (or goat) ALEXA680 (red). Membranes were scanned and quantitated by the ODYSSEY Infrared Imaging System (LI-COR, NE) (10).

In test [8] the test system is SNK6 cells. The test is described as follows: 3-nitrotyrosine formation (ELISA). Type of test: cell-based, human. Particulars: 0.5 µM peptide, 6 h, compared with CTL group, n = 5 (Fig. 3b). The procedure: Antibodies for β-actin (sc-47778), EBV Ea-D (sc-58121), EBV ZEBRA (BZ1, sc-53904), Ki-67 (sc-101861) and VDAC1 (sc-390996) were obtained from Santa Cruz Biotechnology. Antibodies for HK2 (ab104836), H2AX (ab20669), γH2AX (ab2893) and P-gp (ab129450) were obtained from Abcam. The antibody for HKDC1 (NBP1-82108) was obtained from Novus Biologicals. 3-nitrotyrosine (3-NT) was measured by 3-Nitrotyrosine ELISA Kit (ab116691 from Abcam). Nuclear extracts were prepared using the NE-PER Nuclear and Cytoplasmic Extraction Reagents Kit (Pierce Biotechnology). Protein concentration was measured using the Coomassie Protein Assay Kit (Pierce Biotechnology) per manufacturers’ instructions.
On the technique in general: In an ELISA, binding on a coated surface is turned into a signal by an enzyme label.

The subject of test [9] is SNK6 xenograft. The test is described as follows: SNK6 xenograft tumor volume. Type of test: in vivo, mouse. The note with it: nude mice, n = 5.
Description: To measure malignant SNK6 xenograft growth, 100 µl of 1 × 10^5 SNK6 cells in PBS were mixed with 100 µl growth factor-reduced basement membrane matrix (Matrigel™, BD Biosciences) resulting in 200 µl of solution that was injected subcutaneously along the mouse flank at each intended tumor site. Tumor size was measured using a digital caliper and volume was calculated, and mice were randomly divided into four groups (n = 9 per group) when the tumor volume reached 50–100 mm^3 on day ~18 after tumor inoculation and given treatment as follows: Group 1 (control (CTL)) was intratumorally injected with HBSS buffer (5.33 mM KCl, 0.44 mM KH2PO4, 138 mM NaCl, 4 mM NaHCO3, 0.3 mM Na2HPO4, and 5.6 mM glucose, pH 7.3) containing 0.05% DMSO; Group 2 (Tf-D-HKN15) received HBSS buffer containing 0.05% DMSO with 50 µM Tf-D-HKN15 peptides; Group 3 (Tf-D-HKC15) received HBSS buffer containing 0.05% DMSO with 50 µM Tf-D-HKC15 peptides; Group 4 (Tf-D-HKC8) received HBSS buffer containing 0.05% DMSO with 50 µM Tf-D-HKC8 peptides. The xenografts were injected (two points, 20 µl per tumor) every 2 days. Beginning on the day of inoculation, mouse weight and tumor volume were monitored every 2 days. Mice were monitored for changes in body weight and sacrificed when values fell below 20% of their initial weight; the survival curve was calculated and the final tumor tissues were isolated for biomedical analysis.
To measure the malignant SNK6 xenograft growth, the 100µl of 1x10^5 SNK6 cells in PBS were mixed with 100µl growth factor-reduced basement membrane matrix (Matrigel™, BD Biosciences) resulting in 200µl of solution that was injected subcutaneously along the mouse flank at each intended tumor site. Tumor size was measured using a digital caliper and volume was calculated, and mice were randomly divided into 4 groups (n=9 per group) when the tumor volume reached 50-100 mm^3 on day ~18 after tumor inoculation: Group 1 (CTL) was intratumorally injected with HBSS buffer (5.33 mM KCl, 0.44 mM KH2PO4, 138 mM NaCl, 4 mM NaHCO3, 0.3 mM Na2HPO4, and 5.6 mM glucose, pH 7.3) containing 0.05% DMSO; Group 2 (Tf-D-HKN15) received HBSS buffer containing 0.05% DMSO with 50 µM Tf-D-HKN15 peptides; Group 3 (Tf-D-HKC15) received HBSS buffer containing 0.05% DMSO with 50 µM Tf-D-HKC15 peptides; Group 4 (Tf-D-HKC8) received HBSS buffer containing 0.05% DMSO with 50 µM Tf-D-HKC8 peptides. The xenografts were injected (two points, 20 µL per tumor) every two days. Beginning on the day of inoculation, mouse weight and tumor volume were monitored every 2 days. Mice were monitored for changes in body weight and sacrificed when values fell below 20% of their initial weight, the survival curve was calculated and the final tumor tissues were isolated for biomedical analysis.
Test [10] relates to SNK6 cells. Description: Apoptosis rate by TUNEL assay. Format: cell-based, human. The note with it: 0.5 µM peptide, 6 h, compared with CTL group, n = 5 (Fig. 4h). The procedure: as §2

HKDC1/VDAC1, sequence (P21796 2-283 limits assumed): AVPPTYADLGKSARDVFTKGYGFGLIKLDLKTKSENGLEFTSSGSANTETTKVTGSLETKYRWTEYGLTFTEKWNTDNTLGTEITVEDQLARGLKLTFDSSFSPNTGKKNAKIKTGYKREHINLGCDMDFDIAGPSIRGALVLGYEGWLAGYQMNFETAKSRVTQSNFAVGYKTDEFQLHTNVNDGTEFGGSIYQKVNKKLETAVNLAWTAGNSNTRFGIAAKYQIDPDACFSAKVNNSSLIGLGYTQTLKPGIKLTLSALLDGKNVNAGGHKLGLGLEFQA

What is called IC50 is the midpoint of a concentration-inhibition curve. Take HAIYPRHLQQAQKEN [Tf-HKC8]: the values for the half-inhibitory concentration (IC50) in the test with MNCs from ENKTL patients and with SNK6 cells [1] were 0.5 ± 0.2 µM and 0.7 ± 0.2 µM, respectively.
GKPILFF-LQQAQKEN [PAS-D-HKC8]: the IC50 in the test with MNCs from ENKTL patients turned out to be 1.1 ± 0.3 µM; with SNK6 cells [1], 1.3 ± 0.3 µM.
On to HAIYPRH-MFAVHLMAFYFSKLK [Tf-D-HKN15], for which, in the test with SNK6 xenograft [2], the mouse survival entry is “little effect”. In addition, the IC50 in the test on MNCs from ENKTL patients and with SNK6 cells [1] was > 15 µM throughout. Also, the thymidine incorporation result in the test with SNK6 cells [3] is “no effect”. Besides, in the test on SNK6 cells [4], the 8-OHdG formation result is “no effect”. Also, the EBV genome copies result with EBV was “no effect”. In addition, in the test with SNK6 cells [5], the “cell proliferation by quantitation of Ki-67 positive cells” value is “no effect”. Also, the ROS formation entry in the test with SNK6 cells [6] was “no effect”. Moreover, in the test on SNK6 cells [7], the γH2AX formation result was “no effect”. Moreover, at HKDC1/VDAC1, the “association of HKDC1 with VDAC1” value is reported as “no effect”. Moreover, in the test on SNK6 cells [8], the 3-nitrotyrosine formation result was “no effect”. The “tumor volumes on day 36” value in the test with SNK6 xenograft [9] (intratumoral 50 µM peptide every 2 days from day ~18, day 36, vs CTL) was “no effect”. For the same substance, in the test on SNK6 xenograft [9] (intratumoral 50 µM peptide every 2 days from day ~18, day 48, vs CTL), the “tumor volumes on day 48” value is on record as “no effect”. In the test on SNK6 cells [10], the apoptosis rate increase entry is recorded as “no effect”.
In the case of HAIYPRHMFAVHLMAFYFSKLK [Tf-HKN15], the IC50 in the test with MNCs from ENKTL patients and in the test on SNK6 cells [1] was > 15 µM throughout.
With “HAIYPRHEILNKEKK [Tf-Scram, reference compound]”, the IC50 in the test on MNCs from ENKTL patients and in the test with SNK6 cells [1] was > 15 µM in each case.
Take RQIKIWFQNRRMKWKK-LQQAQKEN [Antp-D-HKC8]: the IC50 was 1 ± 0.3 µM in the test on MNCs from ENKTL patients and 1.2 ± 0.4 µM with SNK6 cells [1].
For the substance GYGRKKRRQRRRGLQQAQKEN [TAT-HKC8], the 50% inhibitory concentration (IC50) in the test on MNCs from ENKTL patients turned out to be 1.9 ± 0.4 µM; in the test on SNK6 cells [1], 2 ± 0.4 µM.
Turning to GYGRKKRRQRRRG-LQQAQKEN [TAT-D-HKC8], the IC50 with MNCs from ENKTL patients was determined as 1.5 ± 0.7 µM; in the test with SNK6 cells [1] it was 1.7 ± 0.5 µM.
Taken in the same sequence, the figures for “HAIYPRH-EILNKEKK [Tf-D-Scram, reference compound]” were > 15 µM and > 15 µM.
Taken in the same sequence, the figures for GKPILFFLQQAQKEN [PAS-HKC8] were 1.4 ± 0.4 µM and 1.4 ± 0.3 µM.
Taken in the same sequence, the figures for HAIYPRHITAVAKRLQQAQKEN [Tf-HKC15] were 1.2 ± 0.4 µM and 1.4 ± 0.3 µM.
For the substance RQIKIWFQNRRMKWKKLQQAQKEN [Antp-HKC8], the IC50 is 1.3 ± 0.4 µM in the test on MNCs from ENKTL patients and 1.3 ± 0.3 µM in the test with SNK6 cells [1].
